Earlier results, collected in patent US20150320746A1, “PHARMACEUTICAL FORMULATION COMPRISING 2,3-DIMETHYL-6-(N,N-DIMETHYLAMINOETHYL)-6H-INDOLO-(2,3-B)QUINOXALINE” (priority 2011, published 2015).

Test system: HSV-1

Nc1nc2c(ncn2COCCO)c(=O)[nH]1 [Acyclovir, acyclovir]
selectivity ratio for the inhibitory activity against HSV-1 in vitro: about 2000
